Data as given in patent US9695155B2, “Herbicidal substituted pyrimidinyloxy benzene compounds” (E. I. DU PONT DE NEMOURS AND COMPANY, priority 2013, dated 2017).

What was measured:
[1] = tested on: sedge, umbrella; test: Test C flooded paddy test; format: in vivo, Cyperus difformis; details: Flood, scale 0 to 100 (0 no effect, 100 complete control), 13 to 15 days
Summary of the method: (§1)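 Pots were flooded to 3 cm above the soil surface at treatment, compound applied directly to the paddy water, and that depth held throughout. Plants were kept in a greenhouse for 13 to 15 days, then visually rated against untreated controls.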

[2] = tested on: barnyardgrass; test: Test C flooded paddy test; format: in vivo, Echinochloa crus-galli; details: Flood, scale 0 to 100 (0 no effect, 100 complete control), 13 to 15 days
Summary of the method: as §1

[3] = tested on: corn; test: Test E postemergence; format: in vivo, Zea mays
From the text: (§2) Seeds of plant species selected from corn (Zea mays), soybean (Glycine max), velvetleaf (Abutilon theophrasti), lambsquarters (Chenopodium album), wild poinsettia (Euphorbia heterophylla), palmer pigweed (Amaranthus palmeri), waterhemp (common waterhemp, Amaranthus rudis), surinam grass (Brachiaria decumbens), large (Lg) crabgrass (Digitaria sanguinalis), Brazilian crabgrass (Digitaria horizontalis), fall panicum (Panicum dichotomiflorum), giant foxtail (Setaria faberii), green foxtail (Setaria viridis), goosegrass (Eleusine indica), johnsongrass (Sorghum halepense), ragweed (common ragweed, Ambrosia elatior), barnyardgrass (Echinochloa crus-galli), sandbur (southern sandbur, Cenchrus echinatus), arrowleaf sida (Sida rhombifolia), Italian ryegrass (Lolium multiflorum), dayflower (Virginia (VA) dayflower, Commelina virginica), field bindweed (Convolvulus arvensis), morningglory (Ipomoea coccinea), nightshade (eastern black nightshade, Solanum ptycanthum), kochia (Kochia scoparia), yellow nutsedge (Cyperus esculentus), cocklebur (common cocklebur, Xanthium strumarium), smartweed (ladysthumb smartweed, and hairy beggarticks (Bidens pilosa), were planted into a silt loam soil and treated preemergence with test chemicals formulated in a non-phytotoxic solvent mixture which included a surfactant.
(§3) At the same time, plants from these crop and weed species and also horseweed (Canada horseweed, Conyza canadensis), waterhemp_RES1, (ALS & Triazine resistant common waterhemp, Amaranthus rudis), and waterhemp_RES2, (ALS & HPPD resistant common waterhemp, Amaranthus rudis) were planted in pots containing Redi-Earth® planting medium (Scotts Company, 14111 Scottslawn Road, Marysville, Ohio 43041) comprising spaghnum peat moss, vermiculite, wetting agent and starter nutrients were treated with postemergence applications of test chemicals formulated in the same manner. Plants ranged in height from 2 to 18 cm for postemergence treatments (1- to 4-leaf stage). Treated plants and controls were maintained in a greenhouse for 14 to 21 days, after which time all species were compared to controls and visually evaluated. Plant response ratings, summarized in Table E, are based on a scale of 0 to 100 where 0 is no effect and 100 is complete control. A dash (-) response means no test result.

[4] = tested on: Brazilian crabgrass; test: Test E postemergence; format: in vivo, Digitaria horizontalis
Summary of the method: (§4)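 Compound in a non-phytotoxic solvent mixture with surfactant was applied preemergence to seeds in silt loam soil, or postemergence to plants 2 to 18 cm tall grown in peat-based potting medium. Plants were kept in a greenhouse for 14 to 21 days, then rated visually against untreated controls on a 0 (no effect) to 100 (complete control) scale.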

[5] = tested on: barnyardgrass; test: Test E postemergence; format: in vivo, Echinochloa crus-galli
From the text: as §2, §3

[6] = tested on: dayflower; test: Test E postemergence; format: in vivo, Commelina virginica
From the text: as §2, §3

[7] = tested on: hairy beggarticks; test: Test E postemergence; format: in vivo, Bidens pilosa
Summary of the method: as §4

[8] = Postemergence, 31 g ai/ha, scale 0 to 100
[9] = Postemergence, 62 g ai/ha, scale 0 to 100
[10] = Postemergence, 125 g ai/ha, scale 0 to 100
[11] = postemergence, 8 g ai/ha, scale 0 to 100, 0 no effect, 100 complete control
[12] = postemergence, 16 g ai/ha, scale 0 to 100, 0 no effect, 100 complete control

FC(F)(F)c1cnn(-c2c(Br)cccc2Oc2ncc(Cl)cn2)c1 [Compound 191]
Plant response rating, Sedge, Umbrella ([1]; 31 g ai/ha): 40 | Plant response rating, Sedge, Umbrella ([1]; 62 g ai/ha): 60 | Plant response rating, Sedge, Umbrella ([1]; 125 g ai/ha): 85 | Plant response rating, Sedge, Umbrella ([1]; 250 g ai/ha): 98 | Plant response rating, Barnyardgrass ([2]; 31 g ai/ha): 0 | Plant response rating, Barnyardgrass ([2]; 62 g ai/ha): 0 | Plant response rating, Barnyardgrass ([2]; 125 g ai/ha): 0 | Plant response rating, Barnyardgrass ([2]; 250 g ai/ha): 20 | Plant response rating, Corn [3, 8]: 10 | Plant response rating, Corn [3, 9]: 10 | Plant response rating, Corn [3, 10]: 15 | Plant response rating, Corn [3, 11]: 0 | Plant response rating, Corn [3, 12]: 0 | Plant response rating, Crabgrass, Brazil [4, 8]: 10 | Plant response rating, Crabgrass, Brazil [4, 9]: 10 | Plant response rating, Crabgrass, Brazil [4, 10]: 20 | Plant response rating, Crabgrass, Brazil [4, 11]: 10 | Plant response rating, Crabgrass, Brazil [4, 12]: 10 | Plant response rating, Barnyardgrass [5, 8]: 0 | Plant response rating, Barnyardgrass [5, 9]: 0 | Plant response rating, Barnyardgrass [5, 10]: 0 | Plant response rating, Barnyardgrass [5, 11]: 0 | Plant response rating, Barnyardgrass [5, 12]: 0 | Plant response rating, Dayflower, VA [6, 8]: 5 | Plant response rating, Dayflower, VA [6, 9]: 10 | Plant response rating, Dayflower, VA [6, 10]: 10 | Plant response rating, Dayflower, VA [6, 11]: 0 | Plant response rating, Dayflower, VA [6, 12]: 0 | Plant response rating, Beggarticks [7, 8]: 40 | Plant response rating, Beggarticks [7, 9]: 50 | Plant response rating, Beggarticks [7, 10]: 50 | Plant response rating, Beggarticks [7, 11]: 10 | Plant response rating, Beggarticks [7, 12]: 20

Clc1cnc(Oc2ccccc2-n2cc(Br)nn2)nc1 [Compound 223]
Plant response rating, Corn [3, 8]: 0 | Plant response rating, Corn [3, 9]: 0 | Plant response rating, Corn [3, 10]: 5 | Plant response rating, Corn [3, 11]: 0 | Plant response rating, Corn [3, 12]: 0 | Plant response rating, Crabgrass, Brazil [4, 8]: 10 | Plant response rating, Crabgrass, Brazil [4, 9]: 10 | Plant response rating, Crabgrass, Brazil [4, 10]: 20 | Plant response rating, Crabgrass, Brazil [4, 11]: 0 | Plant response rating, Crabgrass, Brazil [4, 12]: 0 | Plant response rating, Barnyardgrass [5, 8]: 0 | Plant response rating, Barnyardgrass [5, 9]: 0 | Plant response rating, Barnyardgrass [5, 10]: 0 | Plant response rating, Barnyardgrass [5, 11]: 0 | Plant response rating, Barnyardgrass [5, 12]: 0 | Plant response rating, Dayflower, VA [6, 8]: 25 | Plant response rating, Dayflower, VA [6, 9]: 55 | Plant response rating, Dayflower, VA [6, 10]: 65 | Plant response rating, Dayflower, VA [6, 11]: 0 | Plant response rating, Dayflower, VA [6, 12]: 0 | Plant response rating, Beggarticks [7, 8]: 60 | Plant response rating, Beggarticks [7, 9]: 75 | Plant response rating, Beggarticks [7, 10]: 85 | Plant response rating, Beggarticks [7, 11]: 40 | Plant response rating, Beggarticks [7, 12]: 50

N#Cc1cccc(Oc2ncc(Cl)cn2)c1-n1cc(OCC(F)(F)F)cn1 [Compound 274, 3-[(5-chloro-2-pyrimidinyl)oxy]-2-[4-(2,2,2-trifluoroethoxy)-1H-pyrazol-1-yl]benzonitrile]
corn plant response (injury) rating, 0-100 at 31 g/ha ([3]; Zea mays, post-emergence, Postemergence, 31 g ai/ha, scale 0 to 100): 10% | corn plant response (injury) rating, 0-100 at 62 g/ha ([3]; Zea mays, post-emergence, Postemergence, 62 g ai/ha, scale 0 to 100): 10% | corn plant response (injury) rating, 0-100 at 125 g/ha ([3]; Zea mays, post-emergence, Postemergence, 125 g ai/ha, scale 0 to 100): 15% | corn plant response (injury) rating, 0-100 at 8 g/ha ([3]; Zea mays, post-emergence, postemergence, 8 g ai/ha, scale 0 to 100, 0 no effect, 100 complete control): 10% | corn plant response (injury) rating, 0-100 at 16 g/ha ([3]; Zea mays, post-emergence, postemergence, 16 g ai/ha, scale 0 to 100, 0 no effect, 100 complete control): 15% | pest or weed control at 31 g/ha ([4]; Digitaria horizontalis, post-emergence, Postemergence, 31 g ai/ha, scale 0 to 100, read-out: Plant response rating, Crabgrass, Brazil): 25% | pest or weed control at 62 g/ha ([4]; Digitaria horizontalis, post-emergence, Postemergence, 62 g ai/ha, scale 0 to 100, read-out: Plant response rating, Crabgrass, Brazil): 35% | pest or weed control at 125 g/ha ([4]; Digitaria horizontalis, post-emergence, Postemergence, 125 g ai/ha, scale 0 to 100, read-out: Plant response rating, Crabgrass, Brazil): 50% | pest or weed control at 8 g/ha ([4]; Digitaria horizontalis, post-emergence, postemergence, 8 g ai/ha, scale 0 to 100, 0 no effect, 100 complete control, read-out: Plant response rating, Crabgrass, Brazil): 10% | pest or weed control at 16 g/ha ([4]; Digitaria horizontalis, post-emergence, postemergence, 16 g ai/ha, scale 0 to 100, 0 no effect, 100 complete control, read-out: Plant response rating, Crabgrass, Brazil): 20% | pest or weed control at 31 g/ha ([5]; Echinochloa crus-galli, post-emergence, Postemergence, 31 g ai/ha, scale 0 to 100, read-out: Plant response rating, Barnyardgrass): 20% | pest or weed control at 62 g/ha ([5]; Echinochloa crus-galli, post-emergence, Postemergence, 62 g ai/ha, scale 0 to 100, read-out: Plant response rating, Barnyardgrass): 10% | pest or weed control at 125 g/ha ([5]; Echinochloa crus-galli, post-emergence, Postemergence, 125 g ai/ha, scale 0 to 100, read-out: Plant response rating, Barnyardgrass): 60% | pest or weed control at 8 g/ha ([5]; Echinochloa crus-galli, post-emergence, postemergence, 8 g ai/ha, scale 0 to 100, 0 no effect, 100 complete control, read-out: Plant response rating, Barnyardgrass): 5% | pest or weed control at 16 g/ha ([5]; Echinochloa crus-galli, post-emergence, postemergence, 16 g ai/ha, scale 0 to 100, 0 no effect, 100 complete control, read-out: Plant response rating, Barnyardgrass): 10% | pest or weed control at 31 g/ha ([6]; Commelina virginica, post-emergence, Postemergence, 31 g ai/ha, scale 0 to 100, read-out: Plant response rating, Dayflower, VA): 20% | pest or weed control at 62 g/ha ([6]; Commelina virginica, post-emergence, Postemergence, 62 g ai/ha, scale 0 to 100, read-out: Plant response rating, Dayflower, VA): 40% | pest or weed control at 125 g/ha ([6]; Commelina virginica, post-emergence, Postemergence, 125 g ai/ha, scale 0 to 100, read-out: Plant response rating, Dayflower, VA): 70% | pest or weed control at 8 g/ha ([6]; Commelina virginica, post-emergence, postemergence, 8 g ai/ha, scale 0 to 100, 0 no effect, 100 complete control, read-out: Plant response rating, Dayflower, VA): 5% | pest or weed control at 16 g/ha ([6]; Commelina virginica, post-emergence, postemergence, 16 g ai/ha, scale 0 to 100, 0 no effect, 100 complete control, read-out: Plant response rating, Dayflower, VA): 10% | pest or weed control at 31 g/ha ([7]; Bidens pilosa, post-emergence, Postemergence, 31 g ai/ha, scale 0 to 100, read-out: Plant response rating, Beggarticks): 60% | pest or weed control at 62 g/ha ([7]; Bidens pilosa, post-emergence, Postemergence, 62 g ai/ha, scale 0 to 100, read-out: Plant response rating, Beggarticks): 70% | pest or weed control at 125 g/ha ([7]; Bidens pilosa, post-emergence, Postemergence, 125 g ai/ha, scale 0 to 100, read-out: Plant response rating, Beggarticks): 95% | pest or weed control at 8 g/ha ([7]; Bidens pilosa, post-emergence, postemergence, 8 g ai/ha, scale 0 to 100, 0 no effect, 100 complete control, read-out: Plant response rating, Beggarticks): 30% | pest or weed control at 16 g/ha ([7]; Bidens pilosa, post-emergence, postemergence, 16 g ai/ha, scale 0 to 100, 0 no effect, 100 complete control, read-out: Plant response rating, Beggarticks): 50%
